{
  "source": "patent US20120277239A1",
  "about": "“Compositions and Methods for Improving Night Vision” (ALPHA SYNERGY DEVELOPMENT INC., priority 2011, published 2012)",
  "key": {"[1]": {"tested_on": "intraocular pressure", "details": "bunazosin at 0.3%; measured 6 hours post instillation; cited from earlier work"}, "[2]": {"tested_on": "pupil", "details": "bunazosin at 0.3%; cited from earlier work"}, "[3]": {"tested_on": "conjunctival hyperemia", "details": "bunazosin at 0.3%; cited from earlier work"}, "[4]": {"tested_on": "scotopic pupil", "details": "brimonidine […]; for % reduction of scotopic pupil size (left eye) / Scotopic pupil size (mm) (left eye): contralateral control left eye, pH 7.0 to right eye; for % reduction of scotopic pupil size (right eye) / Scotopic pupil size (mm) (right eye): treated right eye, pH 7.0", "from_the_text": "(§1) All pupil measurements were made using Marco video monitor pupillometry in a darkened room, which was captured via digital image capture and monitor adjustable caliper measurement. Once the dark adapted pupil was digitially captured, the instrument allows superiposition of a caliper with 0.1 mm increments to measure the pupil diameter."}, "[5]": {"tested_on": "eye redness", "details": "brimonidine […]; for Redness (from 0 to 4) (right eye): pH 7.0 to right eye", "from_the_text": "as §1"}, "[6]": {"tested_on": "pupil dilation"}, "[7]": {"tested_on": "pupil size", "details": "for Onset of pupil reduction / Pupil reduction at 1 hour (mm) / Range (pupil size) at 3 hours: brimonidine […], pH 7.0 q am", "procedure": "The pupil size was measured at the baseline and then 10 minutes and 3 hours after instillation for 3 consecutive weeks."}, "[8]": {"tested_on": "surface vasoconstriction", "details": "brimonidine 0.01% to 0.05% weight by volume, particularly 0.01% to […]"}, "[9]": {"tested_on": "pupil size in dim light", "details": "cited from earlier work"}, "[10]": {"details": "cited from earlier work; for side effects upon application: in vivo; for floppy iris syndrome: systemic or topical α1-adrenoceptor antagonist (Oshika et al)"}, "[11]": {"details": "pH 7.1; with added constituents of a balanced salt solution", "from_the_text": "The terms “salt” and “constituent of a balanced salt solution” are used interchangeably for the purposes of the present invention. They are a subset of agents that improve solubility of the inventive formulations."}, "[12]": {"details": "Day 2.1 (follows 20 days of consecutive use)"}},
  "note": "Where a name gives a salt, the structure may show the parent alone. Read-outs that look alike come from different tables or passages of the source.",
  "data": [
    {"smiles": "CCCC(=O)N1CCCN(c2nc(N)c3cc(OC)c(OC)cc3n2)CC1", "note": "[Bunazosin]", "values": [
      {"measurement": "intraocular pressure reduction", "setting": "[1]", "value": "about 20%"},
      {"measurement": "pupil reduction", "setting": "[2]", "value": "about 1.0 mm"},
      {"measurement": "duration before return to baseline", "setting": "[3]", "value": "about 24 hours"},
      {"measurement": "mean conjunctival hyperemia score", "setting": "[3]", "value": "1.5 /4"}
    ]},
    {"smiles": "Brc1c(NC2=NCCN2)ccc2nccnc12.O=C(O)C(O)C(O)C(=O)O", "note": "[brimonidine, 5-bromo-6-(2-imidazolin-2-ylamino)quinoxaline D-tartrate]", "values": [
      {"measurement": "pupil modulation in contralateral control (left eye)", "setting": "[4]; pH 7.0 applied to right eye", "value": "delayed but significant pupil modulation"},
      {"measurement": "% reduction of scotopic pupil size (left eye)", "setting": "[4]; time 0 hr (baseline)", "value": 0, "unit": "%"},
      {"measurement": "Scotopic pupil size (mm) (left eye)", "setting": "[4]; time 0 hr (baseline)", "value": 5, "unit": "mm"},
      {"measurement": "% reduction of scotopic pupil size (left eye)", "setting": "[4]; time 0.05 hr", "value": 0, "unit": "%"},
      {"measurement": "Scotopic pupil size (mm) (left eye)", "setting": "[4]; time 0.05 hr", "value": 5, "unit": "mm"},
      {"measurement": "% reduction of scotopic pupil size (left eye)", "setting": "[4]; time 0.5 hr", "value": 0, "unit": "%"},
      {"measurement": "Scotopic pupil size (mm) (left eye)", "setting": "[4]; time 0.5 hr", "value": 5, "unit": "mm"},
      {"measurement": "% reduction of scotopic pupil size (left eye)", "setting": "[4]; time 1.25 hr", "value": 0, "unit": "%"},
      {"measurement": "Scotopic pupil size (mm) (left eye)", "setting": "[4]; time 1.25 hr", "value": 5, "unit": "mm"},
      {"measurement": "% reduction of scotopic pupil size (left eye)", "setting": "[4]; time 2.25 hr", "value": 20, "unit": "%"},
      {"measurement": "Scotopic pupil size (mm) (left eye)", "setting": "[4]; time 2.25 hr", "value": 4, "unit": "mm"},
      {"measurement": "% reduction of scotopic pupil size (left eye)", "setting": "[4]; time 3.25 hr", "value": 20, "unit": "%"},
      {"measurement": "Scotopic pupil size (mm) (left eye)", "setting": "[4]; time 3.25 hr", "value": 4, "unit": "mm"},
      {"measurement": "% reduction of scotopic pupil size (right eye)", "setting": "[4]; time 0 hr (baseline)", "value": 0, "unit": "%"},
      {"measurement": "Scotopic pupil size (mm) (right eye)", "setting": "[4]; time 0 hr (baseline)", "value": 5, "unit": "mm"},
      {"measurement": "% reduction of scotopic pupil size (right eye)", "setting": "[4]; time 0.05 hr", "value": 0, "unit": "%"},
      {"measurement": "Scotopic pupil size (mm) (right eye)", "setting": "[4]; time 0.05 hr", "value": 5, "unit": "mm"},
      {"measurement": "% reduction of scotopic pupil size (right eye)", "setting": "[4]; time 0.5 hr", "value": 10, "unit": "%"},
      {"measurement": "Scotopic pupil size (mm) (right eye)", "setting": "[4]; time 0.5 hr", "value": 4.5, "unit": "mm"},
      {"measurement": "% reduction of scotopic pupil size (right eye)", "setting": "[4]; time 1.25 hr", "value": 20, "unit": "%"},
      {"measurement": "Scotopic pupil size (mm) (right eye)", "setting": "[4]; time 1.25 hr", "value": 4, "unit": "mm"},
      {"measurement": "% reduction of scotopic pupil size (right eye)", "setting": "[4]; time 2.25 hr", "value": 30, "unit": "%"},
      {"measurement": "Scotopic pupil size (mm) (right eye)", "setting": "[4]; time 2.25 hr", "value": 3.5, "unit": "mm"},
      {"measurement": "% reduction of scotopic pupil size (right eye)", "setting": "[4]; time 3.25 hr", "value": 30, "unit": "%"},
      {"measurement": "Scotopic pupil size (mm) (right eye)", "setting": "[4]; time 3.25 hr", "value": 3.5, "unit": "mm"},
      {"measurement": "eye whitening in the right eye", "setting": "[5]; pH 7.0, at 0.5 hr, 1.25 hr, 2.25 hr and 3.25 hr", "value": "significant eye whitening"},
      {"measurement": "Redness (from 0 to 4) (right eye)", "setting": "[5]; time 0 hr (baseline)", "value": 2},
      {"measurement": "Redness (from 0 to 4) (right eye)", "setting": "[5]; time 0.05 hr", "value": 0},
      {"measurement": "Redness (from 0 to 4) (right eye)", "setting": "[5]; time 0.5 hr", "value": 0},
      {"measurement": "Redness (from 0 to 4) (right eye)", "setting": "[5]; time 1.25 hr", "value": 0},
      {"measurement": "Redness (from 0 to 4) (right eye)", "setting": "[5]; time 2.25 hr", "value": 0},
      {"measurement": "Redness (from 0 to 4) (right eye)", "setting": "[5]; time 3.25 hr", "value": 0},
      {"measurement": "pupil effect in one individual", "setting": "[6]; brimonidine […], pH 6.5, one individual who later responded at pH 7.1", "value": "no pupil effect"},
      {"measurement": "treated patients with pupil modulation", "setting": "[6]; brimonidine […], pH 7.1, one eye, 4 individuals", "value": 100, "unit": "%"},
      {"measurement": "individuals who experienced reduced dilation", "setting": "[6]; topical brimonidine […], pH 6.5, one eye, 13 individuals, modest indoor lighting", "value": 2, "unit": "individuals"},
      {"measurement": "treated patients with reduced dilation", "setting": "[6]; topical brimonidine […], pH 6.5, 13 individuals", "value": 15.4, "unit": "%"},
      {"measurement": "individuals with pupil modulation", "setting": "[6]; topical brimonidine […], pH 7.1", "value": "4 out of 4"},
      {"measurement": "Baseline pupil size", "setting": "[7]; baseline before instillation, dark conditions", "value": 6.2, "unit": "mm"},
      {"measurement": "Onset of pupil reduction", "setting": "[7]; one eye, Day 1-20 Avg", "value": "10 to 15", "unit": "min"},
      {"measurement": "Pupil reduction at 1 hour (mm)", "setting": "[7]; Day 1-20 Avg", "value": "≥ 1", "unit": "mm"},
      {"measurement": "Range (pupil size) at 3 hours", "setting": "[7]; Day 1-20 Avg", "value": "3.8-4.2"},
      {"measurement": "Onset of pupil reduction", "setting": "[7]; [12]", "value": "10 to 15", "unit": "min"},
      {"measurement": "Pupil reduction at 1 hour (mm)", "setting": "[7]; [12]", "value": "≥ 1", "unit": "mm"},
      {"measurement": "Range (pupil size) at 3 hours", "setting": "[7]; [12]", "value": "3.8-4.2"},
      {"measurement": "surface vasoconstriction, redness and whiteness versus equivalent concentration of oxymetazoline", "setting": "[8]", "value": "improved surface vasoconstriction, reduced surface redness, and improved whiter appearance"}
    ]},
    {"smiles": "Cc1ccccc1N1CCN(CCc2nnc3n2CCCC3)CC1", "note": "[dapiprazole, 5,6,7,8-tetrahydro-3-[2-(4-o,tolyl-1-piperazinypethyl]-8-triazolo[4,3-a]pyridine hydrochloride]", "values": [
      {"measurement": "effect on pupil size in dim light", "setting": "[9]; clinical application", "value": "very little effect on pupil size in dim light"},
      {"measurement": "side effects upon application", "setting": "[10]", "value": "redness and frequently chemosis"}
    ]},
    {"smiles": "Cc1cccc([C@H](C)c2cnc[nH]2)c1C", "note": "[dexmedetomidine]", "values": [
      {"measurement": "solubility", "setting": "[11]", "value": "≥ 0.1", "unit": "%"}
    ]},
    {"smiles": "CC[C@@H]1C(=O)OC[C@@H]1Cc1cncn1C", "note": "[pilocarpine]", "values": [
      {"measurement": "duration of effect", "setting": "[9]; in vivo", "value": "lasts only a few hours"},
      {"measurement": "pupil in dim light", "setting": "[9]; when first applied", "value": "below 3 mm"},
      {"measurement": "side effects upon application", "setting": "[10]", "value": "brow ache, ciliary muscle contraction and pseudo myopia (muscle spasm of accommodation), and redness"}
    ]},
    {"smiles": "C[C@H](Cc1cc2c(c(C(N)=O)c1)N(CCCO)CC2)NCCOc1ccccc1OCC(F)(F)F", "note": "[sidolosin]", "values": [
      {"measurement": "floppy iris syndrome", "setting": "[10]", "value": "floppy iris syndrome"}
    ]},
    {"smiles": "CCOc1ccccc1OCCN[C@H](C)Cc1ccc(OC)c(S(N)(=O)=O)c1", "note": "[tamsulosin]", "values": [
      {"measurement": "floppy iris syndrome", "setting": "[10]", "value": "floppy iris syndrome"}
    ]}
  ]
}
